Experimental data reported in patent US20050009925A1, “Use of norepinephrine reuptake inhibitors for the treatment of cognitive failure” (priority 2001, published 2005).

Tested on: c-fos
Assay: c-fos activation (Fos-like immunoreactivity) in rat brain after atomoxetine
Assay type: in vivo
Conditions: rats, 3 mg/kg i.p., two hours after administration
Experimental: The immediate-early gene, c-fos, and its protein products have been increasingly utilized as markers for neuronal activation (Dragunow and Faull, J. Neurosci. Methods, 29, 261-265 (1989); Morgan and Curran, Prog. In Brain Res., 86, 287-294 (1990); Robertson, et al., J. Pharmacol. Exp. Ther., 271, 1058-1066 (1994)). C-fos activation is measured as illustrated below for atomoxetine.
Two hours after administration of atomoxetine (3 mg/kg, i.p.), the rats were deeply anesthetized with sodium pentobarbital (60 mg/kg, i.p.) and transcardially perfused with 100 ml of phosphate buffered saline (PBS) followed by 100 ml of 4% paraformaldehyde in PBS. The brain was rapidly removed, postfixed for 90 min in 4% paraformaldehyde and then was transferred to 30% sucrose at […] until saturated. After quick freezing, serial 30 μm sections were cut and placed in PBS until processed for immunohistochemistry. In brief, sections were incubated in PBS containing blocking serum and 0.5% Triton-X 100 for 1 hour. Sections were then incubated with anti-Fos antibody (Santa Cruz Biotechnology, Inc.) at 4° C. overnight. Visualization of the Fos-like immunoreactivity was performed with a Vectastain ABC Elite Kit (Vector Labs, Burlingame, Calif.) using the standard protocol supplied with the kit. Nickel-intensified diaminobenzidine (DAB) was used as the chromagen to yield a gray-black precipitation product. Following visualization of the Fos immunoreactivity, the sections were mounted on gelatin-coated glass slides and allowed to dry. The sections were then dehydrated and cover slipped. Fos expressing cells were quantitated using the MCID M2 imaging system (Imaging Research, St. Catherines, Ontario).

In the case of CNCC[C@@H](Oc1ccccc1C)c1ccccc1 [Atomoxetine, (R)-(−)-N-methyl-3-(2-methylphenoxy)-3-phenylpropylamine], the “Fos positive cells, Nucleus Accumbens” value (nucleus accumbens) is reported as 152 ± 44 Fos positive cells/mm^2, the “Fos positive cells, Prefrontal Cortex” value (prefrontal cortex) is reported as 296 ± 26 Fos positive cells/mm^2 and the “Fos positive cells, Striatum” value (striatum) is reported as 102 ± 35 Fos positive cells/mm^2. The “expression of c-fos (regional pattern, in words)” value (summary of the table) was “increased the expression of c-fos only in the cortical areas”.
